Laboratory results published in ChEMBL document CHEMBL1139590, “Design, synthesis, and biological evaluation of novel human 5'-deoxy-5'-methylthioadenosine phosphorylase (MTAP) substrates” (Bioorg Med Chem Lett, 2005).

What was measured:
[1] = biological target: T1, S-methyl-5'-thioadenosine phosphorylase (Homo sapiens) (UniProt Q13126); experiment: Kcat against human methylthioadenosine phosphorylase expressed in Escherichia coli BL21 DE3 cells
T1 sequence (whole entry): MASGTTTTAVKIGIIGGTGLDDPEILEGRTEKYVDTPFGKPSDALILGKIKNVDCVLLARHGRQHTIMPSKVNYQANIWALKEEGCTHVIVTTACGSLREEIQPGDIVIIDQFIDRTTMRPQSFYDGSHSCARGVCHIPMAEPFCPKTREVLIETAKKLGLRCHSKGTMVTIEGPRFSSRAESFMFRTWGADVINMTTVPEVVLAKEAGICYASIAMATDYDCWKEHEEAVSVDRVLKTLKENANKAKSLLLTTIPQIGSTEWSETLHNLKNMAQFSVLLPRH

[2] = biological target: T1, S-methyl-5'-thioadenosine phosphorylase (Homo sapiens); experiment: Ratio of Kcat to Km against human Methylthioadenosine phosphorylase

K cat [1] [s⁻¹]	Ratio [2] [µM⁻¹ s⁻¹]	SMILES
1.57	0.45	Nc1ncnc2c1ncn2[C@@H]1O[C@H](CSC2CCCCC2)[C@@H](O)[C@H]1O
0.18	0.03	Cc1ccccc1SC[C@H]1O[C@@H](n2cnc3c(N)ncnc32)[C@H](O)[C@@H]1O
4.6	3.5	Nc1ncnc2c1ncn2[C@@H]1O[C@H](CCc2ccccc2)[C@@H](O)[C@H]1O
4.6	3.2	CSC[C@H]1O[C@@H](n2cnc3c(N)ncnc32)[C@H](O)[C@@H]1O (stereo in doubt; 1)
0.23	0.26	Nc1ncnc2c1ncn2[C@@H]1O[C@H](CSc2ccncc2)[C@@H](O)[C@H]1O
1.01	0.09	Nc1ncnc2c1ncn2[C@@H]1O[C@H](CSCCc2ccccn2)[C@@H](O)[C@H]1O
0.3	0.17	Nc1ncnc2c1ncn2[C@@H]1O[C@H](CSc2ccc(C(F)(F)F)cc2)[C@@H](O)[C@H]1O
1.4	0.93	Cc1ccc(SC[C@H]2O[C@@H](n3cnc4c(N)ncnc43)[C@H](O)[C@@H]2O)cc1
2.3	0.74	CC(C)CSC[C@H]1O[C@@H](n2cnc3c(N)ncnc32)[C@H](O)[C@@H]1O
0.0065	0.0001	CSC[C@H]1O[C@@H](n2cnc3c(N)ncnc32)[C@H](O)[C@@H]1O (stereo in doubt; 7)
4.8	0.8	C[C@H]1O[C@@H](n2cnc3c(N)ncnc32)[C@H](O)[C@@H]1O
0.04	1.1e-05	CSC[C@H]1O[C@@H](n2cnc3c(N)ncnc32)C(N=[N+]=[N-])[C@@H]1O (some centres undefined)
2.49	0.73	Nc1ncnc2c1ncn2[C@@H]1O[C@H](CSc2nccs2)[C@@H](O)[C@H]1O
3.8	0.42	Nc1ncnc2c1ncn2[C@@H]1O[C@H](CSc2ncc[nH]2)[C@@H](O)[C@H]1O
1.46	0.058	Nc1ncnc2c1ncn2[C@@H]1O[C@H](CSCCO)[C@@H](O)[C@H]1O
1.11	0.09	Nc1ncnc2c1ncn2[C@@H]1O[C@H](COc2ccccc2)[C@@H](O)[C@H]1O
2.02	0.24	Nc1ncnc2c1ncn2[C@@H]1O[C@H](CNc2ccccc2)[C@@H](O)[C@H]1O
